Measurements published in US7557134B2, “N-(heteroaryl)-1H-indole-2-carboxamide derivatives and their use as vanilloid TRPV1 receptor ligands” (Sanofi-Aventis, priority 2005, dated 2009).
Values belong to the compound of their own block, whether it stands above or below them.

Legend:
TRPV1 receptor = target: T1, TRPV1 receptor (Rattus norvegicus, UniProt O35433); experiment: Test of inhibition of the current induced with capsaicin on rat DRGs (whole-cell patch-clamp); assay type: cell-based; settings: capsaicin response 300 nM, rat DRG neurons
T1 construct: The neurons of the DRG naturally express the TRPV1 receptor; endogenous in cells; host or cells: primary culture of newborn rat dorsal root ganglion neurons
T1 sequence (O35433 whole entry): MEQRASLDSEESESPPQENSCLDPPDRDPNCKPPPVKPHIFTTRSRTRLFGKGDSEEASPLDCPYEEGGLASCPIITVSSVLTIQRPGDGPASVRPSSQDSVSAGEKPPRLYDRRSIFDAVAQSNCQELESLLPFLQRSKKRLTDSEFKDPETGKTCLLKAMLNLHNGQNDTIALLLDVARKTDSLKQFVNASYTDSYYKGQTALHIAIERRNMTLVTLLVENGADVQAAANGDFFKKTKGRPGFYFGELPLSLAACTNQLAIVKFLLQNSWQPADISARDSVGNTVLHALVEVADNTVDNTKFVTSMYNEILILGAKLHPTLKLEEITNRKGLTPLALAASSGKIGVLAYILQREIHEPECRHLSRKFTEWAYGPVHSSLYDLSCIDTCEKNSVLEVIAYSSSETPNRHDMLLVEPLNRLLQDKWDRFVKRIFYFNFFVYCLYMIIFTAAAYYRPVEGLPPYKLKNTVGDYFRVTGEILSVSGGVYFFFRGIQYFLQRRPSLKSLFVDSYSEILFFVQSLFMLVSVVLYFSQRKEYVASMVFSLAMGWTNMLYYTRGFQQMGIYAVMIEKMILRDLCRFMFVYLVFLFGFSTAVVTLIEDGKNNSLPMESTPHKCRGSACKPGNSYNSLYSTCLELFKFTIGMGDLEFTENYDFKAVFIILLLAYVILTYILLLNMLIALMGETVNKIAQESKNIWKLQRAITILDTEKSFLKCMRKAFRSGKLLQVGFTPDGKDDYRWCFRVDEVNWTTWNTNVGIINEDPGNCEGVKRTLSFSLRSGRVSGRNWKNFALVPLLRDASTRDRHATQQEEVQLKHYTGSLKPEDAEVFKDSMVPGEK
Method: Test of Inhibition of the Current Induced with Capsaicin on rat DRGs
• Primary culture of rat dorsal root ganglion (DRG) cells:
The neurons of the DRG naturally express the TRPV1 receptor.
The primary cultures of newborn rat DRGs are prepared using 1-day-old rats. Briefly, after dissection, the ganglions are trypsinized and the cells dissociated by mechanical trituration. The cells are resuspended in an Eagle basal culture medium containing 10% fetal calf serum, 25 mM KCl, 2 mM glutamine, 100 μg/ml gentamicin and 50 ng/ml of NGF, and then deposited on glass slides coated with laminin (0.25×10^6 cells per slide), which are then placed in Corning 12-well dishes. The cells are incubated at 37° C. in a humidified atmosphere containing 5% CO2 and 95% air. Cytosine β-D-arabinoside (1 μM) is added 48 hours after culturing, to prevent the growth of non-neuronal cells. The slides are transferred into experimental chambers for the patch-clamp studies after 7-10 days of culturing.
The measuring chambers (volume 800 μl) containing the cell preparation are placed on the platform of an inverted microscope (Olympus IMT2) equipped with Hoffman optics (Modulation Contrast, New York) and observed at a magnification of 400×. The chambers are continuously gravity-influxed (2.5 ml/min) using a solution distributor accepting 8 inlets and whose sole outlet, consisting of a polyethylene tube (aperture 500 μm), is placed less than 3 mm from the cell under study. The “whole cell” configuration of the patch-clamp technique was used. […] The overall currents (membrane potential set at […]) are recorded with an Axopatch 1 D amplifier (Axon Instruments, Foster city, Calif.), connected to a PC running the Pclamp8 software (Axon Instrument). The current plots are recorded on paper and simultaneously digitized (sampling frequency 15 to 25 Hz) and acquired on the hard drive of the PC.
The application of a 300 nM capsaicin solution induces on the DRG cells (voltage set at −70 mV) an entering cationic current. […] The results are expressed as a percentage of inhibition of the control capsaicin response.

TRPV1 receptors = target: T2, TRPV1 receptors (Mus musculus, UniProt Q704Y3); experiment: Test of mouse corneal irritation (capsaicin ocular instillation); assay type: in vivo; settings: 1 mg/kg po, pretreatment time t = 1 h, n = 8, 2 μl of 160 μM capsaicin
T2 construct: from tissue; host or cells: living mouse, cornea (capsaicin ocular instillation)
T2 sequence (Q704Y3 whole entry): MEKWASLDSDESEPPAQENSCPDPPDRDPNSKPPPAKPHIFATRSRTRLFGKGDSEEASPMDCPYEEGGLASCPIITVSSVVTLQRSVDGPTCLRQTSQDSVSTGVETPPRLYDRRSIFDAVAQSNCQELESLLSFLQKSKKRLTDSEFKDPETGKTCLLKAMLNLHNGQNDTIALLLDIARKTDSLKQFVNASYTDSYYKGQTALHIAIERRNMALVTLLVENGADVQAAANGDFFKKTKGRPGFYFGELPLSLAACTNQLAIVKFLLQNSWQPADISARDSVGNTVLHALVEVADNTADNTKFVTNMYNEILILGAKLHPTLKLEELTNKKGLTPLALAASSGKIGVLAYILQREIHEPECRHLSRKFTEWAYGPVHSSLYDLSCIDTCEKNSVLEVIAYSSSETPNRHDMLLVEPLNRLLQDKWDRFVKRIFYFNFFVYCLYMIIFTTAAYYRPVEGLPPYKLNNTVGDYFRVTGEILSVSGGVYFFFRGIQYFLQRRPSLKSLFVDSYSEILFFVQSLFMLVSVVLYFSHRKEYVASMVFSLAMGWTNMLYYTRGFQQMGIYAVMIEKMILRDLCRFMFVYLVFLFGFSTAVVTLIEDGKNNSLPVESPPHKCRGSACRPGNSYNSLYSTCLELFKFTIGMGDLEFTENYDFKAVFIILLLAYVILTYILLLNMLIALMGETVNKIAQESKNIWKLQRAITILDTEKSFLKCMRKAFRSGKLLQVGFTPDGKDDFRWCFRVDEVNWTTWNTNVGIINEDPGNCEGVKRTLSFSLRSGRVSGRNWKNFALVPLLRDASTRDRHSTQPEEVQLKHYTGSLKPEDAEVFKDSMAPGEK
Method: Test of Mouse Corneal Irritation
The irritant nature of capsaicin is readily assessed on the cornea since this organ is one of the organs most densely innervated with C fibres. In this context, from preliminary experiments, the application of a very small amount of capsaicin (2 μl at a concentration of 160 μM) to the surface of the cornea of an animal leads to a certain number of stereotypic behavioral traits associated with irritation, which are easy to detect. Among these, the following are noted: blinking of the eye, rubbing of the instilled eye with the ipsilateral front paw, rubbing of the face with both front paws, scratching of the ipsilateral face with the hind paw. […] This aspect is moreover also normal. […]
In practice, the test product is administered orally and, with a delay (pretreatment time: t) that depends on the pharmacokinetic data, the animal receives an ocular instillation of 2 μl of a 160 μM capsaicin solution prepared as indicated above. During a 2-minute observation following the instillation, the number of times the instilled eye is rubbed with the ipsilateral front paw is recorded.
For a given animal, the percentage of protection is calculated as follows: P=100−((number of scratching actions observed/mean number of scratching actions for the group treated with the solvent)×100) […]

inhibition at 0.01 µM (TRPV1 receptor; DRG neuron, compound 10 nM): 38%
Structure (SMILES): O=C(Nc1ccc2c(c1)NCCC2)c1cc2cc(F)ccc2n1Cc1cccc(F)c1 [Compound 14, N-(1,2,3,4-tetrahydroquinol-7-yl)-5-fluoro-1-[(3-fluorophenyl)methyl]-1H-indole-2-carboxamide]
% P (percentage of protection) (TRPV1 receptors): 46% - (1 h)

Structure (SMILES): Cn1ncc2cc(NC(=O)c3cc4cc(C(F)(F)F)ccc4n3Cc3cccc(F)c3)ccc21 [Compound 19, N-(1-methyl-1H-indazol-5-yl)-5-trifluoromethyl-1-[(3-fluorophenyl)methyl]-1H-indole-2-carboxamide]
inhibition at 0.001 µM (TRPV1 receptor; DRG neuron, compound 1 nM): 48%

Structure (SMILES): O=C1CCc2ccc(NC(=O)c3cc4cc(F)ccc4n3Cc3cccc(F)c3)cc2N1 [Compound 20, N-(1H-2-oxo-3,4-dihydroquinol-7-yl)-5-fluoro-1-[(3-fluorophenyl)methyl]-1H-indole-2-carboxamide]
% inhibition in DRG patch (TRPV1 receptor; compound 1 nM): 45% (1 nM) | % P (percentage of protection) (TRPV1 receptors): 26% - (1 h)

melting point: 255 to 256 °C
Structure (SMILES): COc1ccc2cc(C(=O)Nc3ccc4c(c3)NC(=O)CC4)n(Cc3ccc(F)cc3)c2c1 [Compound 53, N-(2-oxo-3,4-dihydroquinol-7-yl)-6-methoxy-1-[(4-fluorophenyl)methyl]-1H-indole-2-carboxamide]
